Literature values, collected in patent publication US20230295082A1, “MODIFIED EZETIMIBE DRUG FOR CANCER TREATMENT” (University of South Africa, priority 2020, published 2023).

What was measured:
[1] = tested on: cancer cell lines, especially those that overexpress Mdm2
Mdm2 p53-binding domain = Mdm2 p53-binding domain (Homo sapiens, UniProt Q00987); conditions: applicant's previous work
Chain of Mdm2 p53-binding domain (Q00987 26-109 limits assumed): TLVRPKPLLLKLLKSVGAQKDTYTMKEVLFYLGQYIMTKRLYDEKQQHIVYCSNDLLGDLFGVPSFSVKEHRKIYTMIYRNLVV

## O=C1[C@H](CC[C@H](O)c2ccc(F)cc2)[C@@H](c2ccc(O)cc2)N1c1ccc(F)cc1 [ezetimibe]
[1]
  toxicity to cancer cell lines: toxic to cancer cell lines
Mdm2 p53-binding domain
  binding to the Mdm2 hydrophobic pocket relative to nutlins: bind more strongly than nutlins
